Source: US10143681B2, “Factor XIa inhibitors” (MERCK SHARP & DOHME CORP., priority 2016, dated 2018)

Experiments:
[1] = molecular target: human Factor XIa (Homo sapiens (Human), UniProt P03951); assay: Factor XIa Assay; type: biochemical; conditions: human Factor XIa 0.04 nM, 30 min pre-incubation at 25° C., substrate GPR-AFC; read-out: FXIa IC50
How it was run: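 IC50 values were obtained from four-parameter log(inhibitor)-response fits of % inhibition, then converted to Ki using Cheng-Prusoff. GPR-AFC hydrolysis was read at 400/505 nm after 60 min at 25 °C.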

[2] = molecular target: Human plasma kallikrein (Homo sapiens (Human), UniProt P03952); assay: Kallikrein Assay; type: biochemical; conditions: purified Human plasma kallikrein 0.5 nM, substrate Acetyl-K-P-R-AFC; read-out: P. KLK IC50
Human plasma kallikrein, sequence (P03952 391-638): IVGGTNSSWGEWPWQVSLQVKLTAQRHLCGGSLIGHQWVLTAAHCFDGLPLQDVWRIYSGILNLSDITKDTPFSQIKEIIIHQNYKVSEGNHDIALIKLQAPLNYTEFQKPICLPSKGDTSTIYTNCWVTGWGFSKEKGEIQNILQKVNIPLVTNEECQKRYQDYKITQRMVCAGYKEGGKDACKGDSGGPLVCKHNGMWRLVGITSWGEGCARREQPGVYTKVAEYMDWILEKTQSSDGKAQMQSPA
Human plasma kallikrein, sequence (P03952 20-390 partner): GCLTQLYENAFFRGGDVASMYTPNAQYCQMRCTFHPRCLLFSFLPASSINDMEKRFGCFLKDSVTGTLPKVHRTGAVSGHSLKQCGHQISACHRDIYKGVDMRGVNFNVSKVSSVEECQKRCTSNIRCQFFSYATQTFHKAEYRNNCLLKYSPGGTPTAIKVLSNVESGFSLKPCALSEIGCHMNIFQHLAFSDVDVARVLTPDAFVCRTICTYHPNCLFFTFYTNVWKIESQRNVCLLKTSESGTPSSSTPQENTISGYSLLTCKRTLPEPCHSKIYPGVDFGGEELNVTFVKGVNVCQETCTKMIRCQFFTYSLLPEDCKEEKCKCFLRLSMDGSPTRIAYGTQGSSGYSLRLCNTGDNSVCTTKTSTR
Method: The effectiveness of a compound of the present invention as an inhibitor of Kallikrein can be determined using a relevant purified serine protease, and an appropriate synthetic substrate. The rate of hydrolysis of the chromogenic or fluorogenic substrate by the relevant serine protease was measured both in the absence and presence of compounds of the present invention. Assays were conducted at room temperature or at 37° C. […] A decrease in the rate of fluorescence change in the presence of inhibitor is indicative of enzyme inhibition. Such methods are known to one skilled in the art. The results of this assay are expressed as the half-maximal inhibitory concentrations (IC50), or the inhibitory constant, Ki.
Kallikrein determinations were made in 50 mM HEPES buffer at pH 7.4 containing 150 mM NaCl, 5 mM CaCl2, and 0.1% PEG 8000 (polyethylene glycol; Fisher Scientific). Determinations were made using purified Human plasma kallikrein at a final concentration of 0.5 nM (Enzyme Research Laboratories) and the synthetic substrate, Acetyl-K-P-R-AFC (Sigma # C6608) at a concentration of […].
Times required to achieve equilibration between enzyme and inhibitor were determined in control experiments. The reactions were performed under linear progress curve conditions and fluorescence increase measured at 405 Ex/510 Em nm. […] IC50 was determined by inflection point from a four parameter logistic curve fit. Ki was calculated using the Cheng Prusoff equation, Ki=IC50/(1+([S]/Km)).

[3] = test system: Human plasma (intrinsic coagulation cascade); assay: Activated Partial Thromboplastin Time (aPTT) Assay; conditions: concentration that causes a 50% (1.5×) increase of clot time over vehicle
How it was run: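 Inhibitors spiked into pooled citrated normal-donor human plasma (aPTT 28-40 seconds), run on automated coagulation analyzer: ellagic acid activation of Factor XII, then clot time after recalcification. Reported as concentration giving 50% (1.5×) prolongation over vehicle clot time.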

human Factor XIa, sequence (P03951 388-625): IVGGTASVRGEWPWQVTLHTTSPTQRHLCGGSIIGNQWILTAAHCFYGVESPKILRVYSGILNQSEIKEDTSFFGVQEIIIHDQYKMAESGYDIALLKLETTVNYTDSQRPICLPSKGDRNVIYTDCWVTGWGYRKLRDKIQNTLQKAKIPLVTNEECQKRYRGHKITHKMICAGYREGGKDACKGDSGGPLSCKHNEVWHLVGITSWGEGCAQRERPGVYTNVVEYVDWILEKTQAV
human Factor XIa, sequence (P03951 19-387 partner): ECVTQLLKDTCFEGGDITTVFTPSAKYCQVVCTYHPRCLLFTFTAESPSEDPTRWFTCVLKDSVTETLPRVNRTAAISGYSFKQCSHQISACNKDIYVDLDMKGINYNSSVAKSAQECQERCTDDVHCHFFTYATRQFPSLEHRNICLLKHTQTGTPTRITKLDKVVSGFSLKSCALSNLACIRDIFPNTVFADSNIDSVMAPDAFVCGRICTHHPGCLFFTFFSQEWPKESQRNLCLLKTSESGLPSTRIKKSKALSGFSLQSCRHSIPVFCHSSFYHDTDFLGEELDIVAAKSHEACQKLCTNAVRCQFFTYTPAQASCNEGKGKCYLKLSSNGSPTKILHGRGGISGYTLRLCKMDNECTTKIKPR

Row | Structure (SMILES) | IC50 [1] [nM] | IC50 [2] [nM] | aPTT (1.5x) [3] [µM]
1 | CCOc1ccc(Cl)c(F)c1-c1ccc(C(CC2CC2)C(=O)Nc2ccc(C(=O)O)cc2)[n+]([O-])c1 (single isomer, unassigned) [Example 9, (R)- or (S)-4-({2-[5-(3-chloro-6-ethoxy-2-fluorophenyl)-1-oxidopyridin-2-yl]-3-cyclopropylpropanoyl}amino) benzoic acid] | 9 | 857 | 13
2 | O=C(O)c1ccc(NC(=O)C(CC2CC2CF)c2ccc(-c3c(C(F)F)ccc(Cl)c3F)c[n+]2[O-])cc1 (single isomer, unassigned) [Example 94, 2-(1-((4-carboxyphenyl)amino)-3-(2-(fluoromethyl)cyclopropyl)-1-oxopropan-2-yl)-5-(3-chloro-6-(difluoromethyl)-2-fluorophenyl)pyridine 1-oxide] | 0.4 | 6 | 0.4
3 | O=C(O)c1ccc(NC(=O)C(CC2CC2)c2ccc(-c3cc(Cl)ccc3C(F)(F)F)c[n+]2[O-])cc1 (single isomer, unassigned) [Example 25, (R)- or (S)-2-(1-((4-carboxyphenyl)amino)-3-cyclopropyl-1-oxopropan-2-yl)-5-(5-chloro-2-(trifluoromethyl)phenyl)pyridine 1-oxide] | 16 | 756 | 10.28
4 | N#CC1(CC(C(=O)Nc2ccc(C(=O)O)cc2)c2ccc(-c3c(C(F)F)ccc(Cl)c3F)c[n+]2[O-])CC1 (racemic) [Example 31, 2-(1-((4-carboxyphenyl)amino)-3-(1-cyanocyclopropyl)-1-oxopropan-2-yl)-5-(3-chloro-6-(difluoromethyl)-2-fluorophenyl)pyridine 1-oxide] | 3 | 31 | 0.88
5 | N#CC1(CC(C(=O)Nc2ccc(C(=O)O)cc2)c2ccc(-c3c(C(F)(F)F)ccc(Cl)c3F)c[n+]2[O-])CC1 (racemic) [Example 30, 2-(1-((4-carboxyphenyl)amino)-3-(1-cyanocyclopropyl)-1-oxopropan-2-yl)-5-(3-chloro-2-fluoro-6-(trifluoromethyl)phenyl)pyridine 1-oxide] | 7.6 | 155 | 5.27
6 | O=C(O)c1ccc(NC(=O)C(CC2CCCC2)c2ccc(-c3c(OC(F)F)ccc(Cl)c3F)c[n+]2[O-])cc1 (single isomer, unassigned) [Example 19, (R)- or (S)-4-[(2-{5-[3-chloro-6-(difluoromethoxy)-2-fluorophenyl]-1-oxidopyridin-2-yl}-3-cyclopentylpropanoyl)amino] benzoic acid] | 0.45 | 20 | 1.3
7 | O=C(O)c1ccc(NC(=O)C(CC2CCC2)c2ccc(-c3c(OC(F)F)ccc(Cl)c3F)c[n+]2[O-])cc1 (single isomer, unassigned) [Example 15, (R)- or (S)-4-[(2-{5-[3-chloro-6-(difluoromethoxy)-2-fluorophenyl]-1-oxidopyridin-2-yl}-3-cyclobutylpropanoyl)amino] benzoic acid] | 0.56 | 20 | 0.75
8 | CC1CC1C[C@@H](C(=O)Nc1ccc(C(=O)O)cc1)c1ccc(-c2c(C(F)F)ccc(Cl)c2F)c[n+]1[O-] (single isomer, unassigned) [Example 63] | 0.19 | 2.9 | 2.13
9 | O=C(O)c1ccc(NC(=O)[C@H](CC2CC2)c2ccc(-c3c(OCC4CC4)ccc(Cl)c3F)c[n+]2[O-])cc1 [Example 13, (R)-4-[(2-{5-[3-chloro-6-(cyclopropylmethoxy)-2-fluorophenyl]-1-oxidopyridin-2-yl}-3-cyclopropylpropanoyl)amino] benzoic acid] | 6.9 | 984 | 11.1
10 | CC1(C)CC1CC(C(=O)Nc1ccc(C(=O)O)cc1)c1ccc(-c2c(OC(F)F)ccc(Cl)c2F)c[n+]1[O-] (single isomer, unassigned) [Example 112, 2-(1-((4-carboxyphenyl)amino)-3-(2,2-dimethylcyclopropyl)-1-oxopropan-2-yl)-5-(3-chloro-6-(difluoromethoxy)-2-fluorophenyl)pyridine 1-oxide] | 0.4 | 21.3 | 2.21
11 | O=C(O)c1ccc(NC(=O)C(CC2CC2F)c2ccc(-c3c(C(F)F)ccc(Cl)c3F)c[n+]2[O-])cc1 (single isomer, unassigned) [Example 93, 2-(1-((4-carboxyphenyl)amino)-3-(2-fluorocyclopropyl)-1-oxopropan-2-yl)-5-(3-chloro-6-(difluoromethyl)-2-fluorophenyl)pyridine-1-oxide] | 3.3 | 28 | 0.8
12 | C[C@]1(O)CC[C@H](CC(C(=O)Nc2ccc(C(=O)O)cc2)c2ccc(-c3c(C(F)F)ccc(Cl)c3F)c[n+]2[O-])CC1 (single isomer, unassigned) [Example 47, 2-(1-((4-carboxyphenyl)amino)-3-((1r,4r)-4-hydroxy-4-methylcyclohexyl)-1-oxopropan-2-yl)-5-(3-chloro-6-(difluoromethyl)-2-fluorophenyl)pyridine 1-oxide] | 0.56 | 20 | 0.59
13 | O=C(O)c1ccc(NC(=O)C(CC2CC2C(F)(F)F)c2ccc(-c3c(OC(F)F)ccc(Cl)c3F)c[n+]2[O-])cc1 (single isomer, unassigned) [Example 109, 2-(1-((4-carboxyphenyl)amino)-1-oxo-3-(2-(trifluoromethyl)cyclopropyl)propan-2-yl)-5-(3-chloro-6-(difluoromethoxy)-2-fluorophenyl)pyridine 1-oxide] | 1.2 | 25.2 | 0.76
14 | CC1CC1C[C@@H](C(=O)Nc1ccc(C(=O)O)cc1)c1ccc(-c2c(C(F)F)ccc(Cl)c2F)c[n+]1[O-] (single isomer, unassigned) [Example 62] | 0.21 | 6.1 | 0.35
15 | O=C(O)c1ccc(NC(=O)C(CC2CC2)c2ccc(-c3cc(Cl)ccc3OC(F)F)c[n+]2[O-])cc1 (single isomer, unassigned) [Example 7, (R)- or (S)-4-[(2-{5-[5-chloro-2-(difluoromethoxy)phenyl]-1-oxidopyridin-2-yl}-3-cyclopropylpropanoyl)amino] benzoic acid] | 7.6 | 265 | 16.38
16 | CC1CC(CC(C(=O)Nc2ccc(C(=O)O)cc2)c2ccc(-c3c(C(F)(F)F)ccc(Cl)c3F)c[n+]2[O-])C1 (single isomer, unassigned) [Example 74, 2-(1-((4-carboxyphenyl)amino)-3-(3-methylcyclobutyl)-1-oxopropan-2-yl)-5-(3-chloro-2-fluoro-6-(trifluoromethyl)phenyl) pyridine 1-oxide] | 1.3 | 19.2 | 2.77
17 | O=C(O)c1ccc(NC(=O)C(CC2CC2CF)c2ccc(-c3c(C(F)F)ccc(Cl)c3F)c[n+]2[O-])cc1 (single isomer, unassigned) [Example 95, 2-(1-((4-carboxyphenyl)amino)-3-(2-(fluoromethyl)cyclopropyl)-1-oxopropan-2-yl)-5-(3-chloro-6-(difluoromethyl)-2-fluorophenyl)pyridine-1-oxide] | 0.4 | 9.6 | 0.43
18 | C[C@]1(O)CC[C@H](CC(C(=O)Nc2ccc(C(=O)O)cc2)c2ccc(-c3c(OC(F)F)ccc(Cl)c3F)c[n+]2[O-])CC1 (single isomer, unassigned) [Example 43, 2-(1-((4-carboxyphenyl)amino)-3-((1r,4r)-4-hydroxy-4-methylcyclohexyl)-1-oxopropan-2-yl)-5-(3-chloro-6-(difluoromethoxy)-2-fluorophenyl)pyridine 1-oxide] | 0.45 | 20 | 0.55
19 | O=C(O)c1ccc(NC(=O)C(CC2CC2C(F)(F)F)c2ccc(-c3c(OC(F)F)ccc(Cl)c3F)c[n+]2[O-])cc1 (single isomer, unassigned) [Example 107, 2-(1-((4-carboxyphenyl)amino)-1-oxo-3-(2-(trifluoromethyl)cyclopropyl)propan-2-yl)-5-(3-chloro-6-(difluoromethoxy)-2-fluorophenyl)pyridine 1-oxide] | 3.2 | 24.2 | 1.74
